From patent publication EP2127643A1, “Oral pellet composition with time-delayed release” (Bayer Schering Pharma Aktiengesellschaft, priority 2008, dated 2009)
Read-outs that look alike come from different tables or passages of the source. Values belong to the molecule of their own block, whether it stands above or below them.

How the values were obtained:
[1] = human, cited from earlier work
CYP-3A4 = CYP-3A4 (Homo sapiens, UniProt P08684); experiment: CYP test: inhibition of cytochrome P450 isoenzymes by excipients; assay type: biochemical
CYP-2C19 = CYP-2C19 (Homo sapiens, UniProt P33261); experiment: as above; assay type: biochemical
CYP-2C9 = CYP-2C9 (Homo sapiens, UniProt P11712); experiment: as above; assay type: biochemical
[2] = human; oral paclitaxel with simultaneous cyclosporin (Pgp inhibitor); cited from earlier work
[3] = rats; paclitaxel oral 30 min after oral morin; cited from earlier work
[4] = concentration of excipient at which 50 % of the isoenzyme is inhibited

Chain of CYP-3A4 (P08684 whole entry): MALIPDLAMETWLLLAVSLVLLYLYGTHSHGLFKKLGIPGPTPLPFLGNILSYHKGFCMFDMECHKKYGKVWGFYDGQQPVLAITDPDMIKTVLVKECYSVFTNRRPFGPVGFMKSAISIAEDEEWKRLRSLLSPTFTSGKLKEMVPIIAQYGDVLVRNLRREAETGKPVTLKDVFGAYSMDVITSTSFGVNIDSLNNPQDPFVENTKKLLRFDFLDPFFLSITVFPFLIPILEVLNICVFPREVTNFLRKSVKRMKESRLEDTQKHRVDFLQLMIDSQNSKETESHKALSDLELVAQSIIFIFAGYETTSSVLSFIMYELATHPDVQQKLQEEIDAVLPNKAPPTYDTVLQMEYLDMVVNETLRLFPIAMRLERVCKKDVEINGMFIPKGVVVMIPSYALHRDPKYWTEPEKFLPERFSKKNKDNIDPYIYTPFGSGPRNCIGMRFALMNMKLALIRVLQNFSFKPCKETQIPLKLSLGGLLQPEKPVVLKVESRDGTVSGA
Chain of CYP-2C19 (P33261 whole entry): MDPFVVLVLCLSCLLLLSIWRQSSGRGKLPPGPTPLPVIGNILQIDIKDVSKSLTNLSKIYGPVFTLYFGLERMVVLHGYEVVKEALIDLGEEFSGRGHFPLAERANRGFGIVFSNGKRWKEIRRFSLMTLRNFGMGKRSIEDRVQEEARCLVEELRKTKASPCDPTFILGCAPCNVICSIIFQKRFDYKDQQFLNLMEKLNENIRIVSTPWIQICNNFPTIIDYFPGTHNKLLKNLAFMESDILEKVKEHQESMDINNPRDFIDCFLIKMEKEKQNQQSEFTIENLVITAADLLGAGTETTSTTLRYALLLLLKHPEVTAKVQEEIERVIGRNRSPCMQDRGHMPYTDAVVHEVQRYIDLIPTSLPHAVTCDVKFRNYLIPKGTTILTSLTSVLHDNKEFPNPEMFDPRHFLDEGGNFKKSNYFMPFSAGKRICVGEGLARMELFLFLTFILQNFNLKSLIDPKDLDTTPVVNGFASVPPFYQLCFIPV
Chain of CYP-2C9 (P11712 whole entry): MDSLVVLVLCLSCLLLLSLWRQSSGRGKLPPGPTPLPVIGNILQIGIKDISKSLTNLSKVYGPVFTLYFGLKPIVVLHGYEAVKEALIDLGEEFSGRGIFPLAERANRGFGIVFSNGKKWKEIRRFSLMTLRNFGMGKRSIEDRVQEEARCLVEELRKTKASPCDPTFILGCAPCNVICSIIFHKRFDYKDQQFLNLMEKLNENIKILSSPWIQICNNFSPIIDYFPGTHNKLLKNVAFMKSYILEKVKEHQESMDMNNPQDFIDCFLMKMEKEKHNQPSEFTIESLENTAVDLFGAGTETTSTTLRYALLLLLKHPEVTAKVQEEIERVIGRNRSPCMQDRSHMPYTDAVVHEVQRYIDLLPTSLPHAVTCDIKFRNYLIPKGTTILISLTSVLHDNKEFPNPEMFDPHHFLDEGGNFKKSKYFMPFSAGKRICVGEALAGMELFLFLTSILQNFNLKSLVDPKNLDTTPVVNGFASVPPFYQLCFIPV

Molecule: C#C[C@]1(O)CC[C@H]2[C@@H]3CCc4cc(O)ccc4[C@H]3CC[C@@]21C [Ethinylestradiol]
Anteil des beobachteten First-Pass-Effekts durch direkte Konjugation (vor allem Sulfatierung in der Darmwand) ([1]; gut wall): 65% | humane absolute Bioverfügbarkeit ([1]; oral): ~45%

Molecule: CCCCCCCC/C=C\CCCCCCCC(=O)OCC [Ethyloleat]
IC50 (CYP-3A4): 0.377 mM | IC50 (CYP-2C19): 1.05 mM | IC50 (CYP-2C9): 0.628 mM

Molecule: CC(=O)O[C@H]1C(=O)[C@@]2(C)[C@H]([C@H](OC(=O)c3ccccc3)[C@]3(O)C[C@H](OC(=O)[C@H](O)[C@@H](NC(=O)c4ccccc4)c4ccccc4)C(C)=C1C3(C)C)[C@]1(OC(C)=O)CO[C@@H]1C[C@@H]2O [Paclitaxel]
Bioverfügbarkeit erhöht um Faktor [2]: 9 | Erhöhung der AUC [3]: ≤ 70%

Molecule: CCOCCOCCO [Transcutol®P, Ethoxydiglycol]
IC50 (CYP-3A4; concentration of excipient at which 50 % of the isoenzyme is inhibited, read-out: IC50, µg/ml CYP-3A4 (converted)): 5.63 mM | IC50 (CYP-2C19; concentration of excipient at which 50 % of the isoenzyme is inhibited, read-out: IC50, µg/ml CYP-2C19 (converted)): 10.4 mM | IC50 (CYP-2C9; concentration of excipient at which 50 % of the isoenzyme is inhibited, read-out: IC50, µg/ml CYP-2C9 (converted)): 11.2 mM

IC50, µg/ml CYP-3A4 (CYP-3A4; [4]): 29 µg/mL | IC50, µg/ml CYP-2C19 (CYP-2C19; [4]): 6,9 µg/ml | IC50, µg/ml CYP-2C9 (CYP-2C9; [4]): 5,0 µg/ml
Molecule: Glycerolmonocaprylat [Imwitor®308]
